# Measured values taken from US5439905A, “Thienodiazepine compounds and their use” (Yoshitomi Pharmaceutical Industries, Ltd., priority 1993, dated 1995).
# Like-named read-outs stand apart in the source and are kept apart here.
# How the values were obtained:
# CCK receptor (pancreas) = molecular target: T1, CCK receptor (pancreas) (Canis lupus familiaris, UniProt Q5D0K2); assay: CCK receptor-binding, pancreas (inhibition of 125I-CCK-8 binding); set-up: species or system male mongrel adult dog
# T1 construct: the suspension was used as a receptor source; from tissue; host or cells: dog pancreas membranes
# T1 sequence (Q5D0K2 1-428): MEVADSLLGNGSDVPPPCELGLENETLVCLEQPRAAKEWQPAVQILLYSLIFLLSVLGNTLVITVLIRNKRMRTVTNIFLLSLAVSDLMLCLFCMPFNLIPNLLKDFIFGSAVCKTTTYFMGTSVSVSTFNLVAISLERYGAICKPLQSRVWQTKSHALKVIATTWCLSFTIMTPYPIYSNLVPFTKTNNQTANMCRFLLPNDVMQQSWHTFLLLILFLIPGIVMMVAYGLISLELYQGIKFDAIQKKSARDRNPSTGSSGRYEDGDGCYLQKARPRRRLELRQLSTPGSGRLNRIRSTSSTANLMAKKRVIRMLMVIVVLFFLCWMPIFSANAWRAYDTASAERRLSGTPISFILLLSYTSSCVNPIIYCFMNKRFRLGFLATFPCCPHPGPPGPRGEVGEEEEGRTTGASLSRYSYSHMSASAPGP
# Protocol: The entire pancreas of a male mongrel adult dog was extracted and the fat tissues thereof were removed. The residual portion was homogenized in 50 mM Tris hydrochloride (pH 7.5) (Blinkman.cndot.Polytron PT20). After the filtration with nylon cloth (120 mesh) and subsequent centrifugation (50,000×g, 12 minutes), the obtained sediment was homogenized in a Tris buffer solution in the same manner as mentioned above and the homogenate was centrifuged. The obtained sediment was suspended in a buffer solution for binding assay (5 mM magnesium chloride, 5 mM dithiothreitol, 2 mg/ml bovine serum albumin, 0.1 mg/ml bacitracin, and 50 mM Tris hydrochloride, pH 7.2) containing 0.14 mg/ml trypsin-inhibitor (soy bean), and the suspension was used as a receptor source.
# CCK receptor (brain) = molecular target: T2, CCK receptor (brain); assay: CCK receptor-binding, brain (inhibition of 125I-CCK-8 binding)
# T2 construct: brain; from tissue
# [1] = dog pancreas membranes, 125I-CCK-8, 20° C., 30 minutes, pH 7.2, read-out: CCK binding, IC50, pancreas
# T2 sequence (P32239 whole entry): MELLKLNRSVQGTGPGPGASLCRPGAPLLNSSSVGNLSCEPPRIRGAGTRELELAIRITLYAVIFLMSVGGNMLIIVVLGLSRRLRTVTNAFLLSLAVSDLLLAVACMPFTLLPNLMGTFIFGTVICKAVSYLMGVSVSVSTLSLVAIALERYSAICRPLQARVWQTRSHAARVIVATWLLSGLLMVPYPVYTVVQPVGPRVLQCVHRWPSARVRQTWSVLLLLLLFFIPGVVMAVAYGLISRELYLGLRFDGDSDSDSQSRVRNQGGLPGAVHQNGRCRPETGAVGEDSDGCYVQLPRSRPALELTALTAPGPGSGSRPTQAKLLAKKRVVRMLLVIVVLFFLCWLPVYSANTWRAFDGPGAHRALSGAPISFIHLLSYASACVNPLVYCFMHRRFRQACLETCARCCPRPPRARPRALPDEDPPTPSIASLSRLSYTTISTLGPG
Compound,IC50 (CCK receptor (pancreas)),IC50 (CCK receptor (brain)),IC50 (CCK receptor (pancreas); [1])
"CCc1cc2c(s1)N(C)C(=O)C(NC(=O)Nc1cccc(C)c1)N=C2c1ccccc1Cl (stereo not drawn) [Compound A, 4-(2-chlorophenyl)-2-ethyl-8-methyl-6-(3-(3-methylphenyl)ureido)-8H-6,7-dihydro-thieno[3,2-f]-[1,4]diazepin-7-one]",11 nM,31 nM,–
"CCc1cc2c(s1)-n1c(C)nnc1C(NC(=O)Nc1cccc(C)c1)N=C2c1ccccc1Cl (stereo not drawn) [Compound B, 4-(2-chlorophenyl)-2-ethyl-9-methyl-6-(3-(3-methylphenyl)ureido)-6H-thieno[3,2-f][1,2,4]-triazolo[4,3-a][1,4]diazepine]",1.2 nM,10 nM,–
CCK-4 [reference compound],–,–,800 nM
CCK-8: CCK-8 which consists of 8 amino acids at the C terminus (of cholecystokinin); control compound [reference compound],–,–,0.4 nM
